Test results taken from US11834460B2, “Imide-based modulators of proteolysis and associated methods of use” (YALE UNIVERSITY, priority 2018, dated 2023).
pIC50: −log10 of the molar value.

Tested on: c-Myc
Test: c-Myc ELISA assay protocol in 22RV-1 cells
Format: cell-based, human
Conditions: 18 h, read-out: cMyc IC50
Experimental: In each bioassay, cells were treated with varying amounts of compounds encompassed by the present disclosure, as shown in Table 1. The degradation of the following proteins were evaluated in this study: TANK-binding kinase 1 (TBK1), estrogen receptor α (ERα), bromodomain-containing protein 4 (BRD4), androgen receptor (AR), and c-Myc.
5. c-Myc ELISA Assay Protocol
22RV-1 cells were purchased from ATCC and cultured in RPMI+10% FBS media. Cells were harvested using trypsin (Gibco #25200-114), counted and seeded at 30,000 cells/well at a volume of 75 μL/well in RPMI +10% FBS media in 96-well plates. The cells were dosed with compounds diluted in 0.1% DMSO, incubated for 18 h then washed and lysed in 50 uL RIPA buffer (50 mM Tris pH8, 150 mM NaCl, 1% Tx-100, 0.1% SDS, 0.5% sodium deoxycholate) supplemented with protease and phosphatase inhibitors. The lysates were clarified at 4000 rpm at 4° C. for 10 minutes then aliquots were added into a 96-well ELISA plate of Novex Human c-myc ELISA kit from Life Technologies Catalog #KHO2041. 50 ul of c-Myc Detection antibody was added into every well, the plates incubated at room temperature for 3 hrs, then washed with ELISA wash buffer. 100 uL of the anti-rabbit IgG-HRP secondary antibody was added to each well and incubated at room temperature for 30 minutes. The plates were washed with ELISA wash buffer, 100 μL TMB added to each well, and then monitored every 5 minutes for a color change. 100 μL of stop solution is added and the plates read at 450 nm.

SMILES | pIC50
Cc1sc2c(c1C)C(c1ccc(Cl)cc1)=N[C@@H](CC(=O)N[C@@H](C)c1ccc(OCCCOCCNc3cccc4c3C(=O)N(C3CCC(=O)NC3=O)C4=O)cc1)c1nnc(C)n1-2 (stereo partly drawn) [Compound 41, 2-[9S)-7-(4-chlorophenyl)-4,5,13-trimethyl-3-thia-1,8,11,12-tetraazatricyclo [8.3.0.0^2,^6]trideca-2(6),4,7,10,12-pentaen-9-yl]-N-[(1S)-1-{4-[3-(2-{[2-(2,6-dioxopiperidin-3-yl)-1,3-dioxo-2,3-dihydro-1H-isoindol-4-yl]amino}ethoxy)propoxyphenyl}ethyl]acetamide] | > 7.30
Cc1sc2c(c1C)C(c1ccc(Cl)cc1)=N[C@@H](CC(=O)N[C@@H](C)c1ccc(OCCOCCNc3cccc4c3CN(C3CCC(=O)NC3=O)C4=O)cc1)c1nnc(C)n1-2 (stereo partly shown) [Compound 42] | > 7.30
Cc1sc2c(c1C)C(c1ccc(Cl)cc1)=N[C@@H](CC(=O)NCCCCNc1cccc3c1C(=O)N(C1CCC(=O)NC1=O)C3=O)c1nnc(C)n1-2 (stereo partly drawn) [Compound 43, 2-[(9S)-7-(4-chlorophenyl)-4,5,13-trimethyl-3-thia-1,8,11,12-tetraazatricyclo [8.3.0.0^2,^6]trideca-2(6),4,7,10,12-pentaen-9-yl]-N-(4-{[2-(2,6-dioxopiperidin-3-yl)-1,3-dioxo-2,3-dihydro-1H-isoindol-4-yl]amino}butyl) acetamide] | < 7.30
Cc1nnc2n1C1=C(C(c3ccc(Cl)cc3)=N[C@H]2CC(=O)NCCCCCNc2cccc3c2C(=O)N(C2CCC(=O)NC2=O)C3=O)C(C)C(C)S1 (stereo partly drawn) [Compound 45, 2-[(9S)-7-(4-chlorophenyl)-4,5,13-trimethyl-3-thia-1,8,11,12-tetraazatricyclo [8.3.0.0^2,^6]trideca-2(6),4,7,10,12-pentaen-9-yl]-N-(5-{[2-(2,6-dioxopiperidin-3-yl)-1,3-dioxo-2,3-dihydro-1H-isoindol-4-yl]amino}pentyl) acetamide] | > 7.30
Cc1sc2c(c1C)C(c1ccc(Cl)cc1)=N[C@@H](CC(=O)NCCCNc1cccc3c1CN(C1CCC(=O)NC1=O)C3=O)c1nnc(C)n1-2 (stereo partly drawn) [Compound 46, 2-[(9S)-7-(4-chlorophenyl)-4,5,13-trimethyl-3-thia-1,8,11,12-tetraazatricyclo [8.3.0.0^2,^6]trideca-2(6),4,7,10,12-pentaen-9-yl]-N-(3-{[2-(2,6-dioxopiperidin-3-yl)-1-oxo-2,3-dihydro-1H-isoindol-4-yl]amino}propyl) acetamide] | < 7.30
Cc1sc2c(c1C)C(c1ccc(Cl)cc1)=N[C@@H](CC(=O)NCCCCNc1cccc3c1CN(C1CCC(=O)NC1=O)C3=O)c1nnc(C)n1-2 (stereo partly drawn) [Compound 47, 2-[(9S)-7-(4-chlorophenyl)-4,5,13-trimethyl-3-thia-1,8,11,12-tetraazatricyclo [8.3.0.0^2,^6]trideca-2(6),4,7,10,12-pentaen-9-yl]-N-(4-{[2-(2,6-dioxopiperidin-3-yl)-1-oxo-2,3-dihydro-1H-isoindol-4-yl]amino}butyl) acetamide] | < 7.30
Cc1sc2c(c1C)C(c1ccc(Cl)cc1)=N[C@@H](CC(=O)N[C@@H](C)c1ccc(OCCOCCNc3cccc4c3C(=O)N(C3CCC(=O)NC3=O)C4=O)c(F)c1)c1nnc(C)n1-2 (stereo partly drawn) [Compound 48, 2-[(9S)-7-(4-chlorophenyl)-4,5,13-trimethyl-3-thia-1,8,11,12-tetraazatricyclo [8.3.0.0^2,^6]trideca-2(6),4,7,10,12-pentaen-9-yl]-N-[(1S)-1-{4-[2-(2-{[2-(2,6-dioxopiperidin-3-yl)-1,3-dioxo-2,3-dihydro-1H-isoindol-4-yl]amino}ethoxy)ethoxy]-3-fluorophenyl}ethyl]acetamide] | > 7.30
Cc1sc2c(c1C)C(c1ccc(Cl)cc1)=N[C@@H](CC(=O)Nc1ccc(OCCOCCOCCOCCNc3cccc4c3C(=O)N(C3(C)CCC(=O)NC3=O)C4=O)cc1)c1nnc(C)n1-2 (stereo partly drawn) [Compound 49, 2-[(9S)-7-(4-chlorophenyl)-4,5,13-trimethyl-3-thia-1,8,11,12-tetraazatricyclo [8.3.0.0^2,^6]trideca-2(6),4,7,10,12-pentaen-9-yl]-N-[4-({1-[2-(3-methyl-2,6-dioxopiperidin-3-yl)-1,3-dioxo-2,3-dihydro-1H-isoindol-4-yl]-4,7,10-trioxa-1-azadodecan-12-yl}oxy)phenyl] acetamide] | < 7.30
Cc1sc2c(c1C)C(c1ccc(Cl)cc1)=N[C@@H](CC(=O)Nc1ccc(OCCOCCOCCOCCNc3cccc4c3C(=O)N(C3CCC(=O)N(C)C3=O)C4=O)cc1)c1nnc(C)n1-2 (stereo partly drawn) [Compound 50, 2-[(9S)-7-(4-chlorophenyl)-4,5,13-trimethyl-3-thia-1,8,11,12-tetraazatricyclo [8.3.0.0^2,^6]trideca-2(6),4,7,10,12-pentaen-9-yl]-N-[4-({1-[2-(1-methyl-2,6-dioxopiperidin-3-yl)-1,3-dioxo-2,3-dihydro-1H-isoindol-4-yl]-4,7,10-trioxa-1-azadodecan-12-yl}oxy)phenyl] acetamide] | < 7.30
Cc1sc2c(c1C)C(c1ccc(Cl)cc1)=N[C@@H](CC(=O)N[C@H](C)c1cccc(OCCCNc3cccc4c3CN(C3CCC(=O)NC3=O)C4=O)c1)c1nnc(C)n1-2 (stereo partly drawn) [Compound 51, 2-[(9S)-7-(4-chlorophenyl)-4,5,13-trimethyl-3-thia-1,8,11,12-tetraazatricyclo [8.3.0.0^2,^6]trideca-2(6),4,7,10,12-pentaen-9-yl]-N-[(1R)-1-[3-(3-{[2-(2,6-dioxopiperidin-3-yl)-1-oxo-2,3-dihydro-1H-isoindol-4-yl]amino}propoxy)phenyl]ethyl] acetamide] | < 7.30
Cc1sc2c(c1C)C(c1ccc(Cl)cc1)=N[C@@H](CC(=O)N[C@H]1CCN(C(=O)c3ccc(NCCNc4cccc5c4C(=O)N(C4CCC(=O)NC4=O)C5=O)cc3)C1)c1nnc(C)n1-2 (stereo partly drawn) [Compound 52, 2-[(9S)-7-(4-chlorophenyl)-4,5,13-trimethyl-3-thia-1,8,11,12-tetraazatricyclo [8.3.0.0^2,^6]trideca-2(6),4,7,10,12-pentaen-9-yl]-N-[(3S)-1-{4-[(2-{[2-(2,6-dioxopiperidin-3-yl)-1,3-dioxo-2,3-dihydro-1H-isoindol-4-yl]amino}ethyl)amino]benzoyl}pyrrolidin-3-yl]acetamide] | < 7.30
Cc1sc2c(c1C)C(c1ccc(Cl)cc1)=N[C@@H](CC(=O)NCCOCCNc1cccc3nc(C)n(C4CCC(=O)NC4=O)c(=O)c13)c1nnc(C)n1-2 (stereo partly drawn) [Compound 53, 2-[(9S)-7-(4-chlorophenyl)-4,5,13-trimethyl-3-thia-1,8,11,12-tetraazatricyclo [8.3.0.0^2,^6]trideca-2(6),4,7,10,12-pentaen-9-yl]-N-[2-(2-{[3-(2,6-dioxopiperidin-3-yl)-2-methyl-4-oxo-3,4-dihydroquinazolin-5-yl]amino}ethoxy)ethyl]acetamide] | < 7.30
Cc1sc2c(c1C)C(c1ccc(Cl)cc1)=N[C@@H](CC(=O)NCCCOCCCNc1cccc3c1CN(C1CCC(=O)NC1=O)C3=O)c1nnc(C)n1-2 (stereo partly drawn) [Compound 54, 2-[(9S)-7-(4-chlorophenyl)-4,5,13-trimethyl-3-thia-1,8,11,12-tetraazatricyclo [8.3.0.0^2,^6]trideca-2(6),4,7,10,12-pentaen-9-yl]-N-[3-(3-{[2-(2,6-dioxopiperidin-3-yl)-1-oxo-2,3-dihydro-1H-isoindol-4-yl]amino}propoxy)propyl]acetamide] | > 7.30
